Assay results taken from US7589123B2, “Chemical compounds” (Phytopharm PLC, priority 2006, dated 2009).

What was measured:
[1] = system: histamine-induced contractions in guinea pig ileum; experiment: Inhibition of histamine-induced contractions in guinea pig ileum (Assay 3); settings: Cavia porcellus, histamine 1.7 μM, read-out: Inhibition of histamine-induced contraction (%)
Method: (§1) Duncan Hartley derived male guinea pigs (325±25 g) were suppressed by CO2 overexposure, the abdominal cavity was exposed and ileal segments were removed. Small strips of ileum were suspended in organ baths containing Krebs solution (composition in g/l: NaCl 6.89, KCl 0.35, CaCl2 0.277, KH2PO4 0.163, MgSO4.7H2O 0.296, NaHCO3 2.1 glucose 1.8). The solution was kept at 32° C. and gassed with O2 (95%)-CO2 (5%) to maintain pH at 7.4. Mechanical activity was recorded by means of isotonic transducers. A resting tension of 1 g was applied to muscle strips before being equilibrated for 1 h, prior to test compound addition. Each preparation was washed twice at 15 min intervals during the equilibration.
(§2) Histamine (1.7 μM; approximately EC60-70) or 5-hydroxytryptamine (5-HT, 2.6 μM; approximately EC60-70) was applied for 5 min and the amplitude of the contraction recorded. The histamine or 5-HT was then washed out until the ileal tissue returned to baseline. Five min after returning to baseline test compound (3 and 30 μM) was applied and the amplitude of the contraction (if any) was recorded. In the continuous presence of test compound, histamine or 5-HT was re-applied and the inhibition of the response was recorded.

[2] = molecular target: T1, 5-lipoxygenase (Homo sapiens, UniProt P09917); experiment: 5-lipoxygenase activity (LTB4) in human peripheral blood mononuclear leukocytes (Assay 6); type: cell-based; settings: human PBMLs, A23187 30 μM, read-out: Inhibition of 5-LO (%)
T1 construct: endogenous in cells; host or cells: human peripheral blood mononuclear leukocytes (PBMLs)
T1 sequence (P09917 1-674): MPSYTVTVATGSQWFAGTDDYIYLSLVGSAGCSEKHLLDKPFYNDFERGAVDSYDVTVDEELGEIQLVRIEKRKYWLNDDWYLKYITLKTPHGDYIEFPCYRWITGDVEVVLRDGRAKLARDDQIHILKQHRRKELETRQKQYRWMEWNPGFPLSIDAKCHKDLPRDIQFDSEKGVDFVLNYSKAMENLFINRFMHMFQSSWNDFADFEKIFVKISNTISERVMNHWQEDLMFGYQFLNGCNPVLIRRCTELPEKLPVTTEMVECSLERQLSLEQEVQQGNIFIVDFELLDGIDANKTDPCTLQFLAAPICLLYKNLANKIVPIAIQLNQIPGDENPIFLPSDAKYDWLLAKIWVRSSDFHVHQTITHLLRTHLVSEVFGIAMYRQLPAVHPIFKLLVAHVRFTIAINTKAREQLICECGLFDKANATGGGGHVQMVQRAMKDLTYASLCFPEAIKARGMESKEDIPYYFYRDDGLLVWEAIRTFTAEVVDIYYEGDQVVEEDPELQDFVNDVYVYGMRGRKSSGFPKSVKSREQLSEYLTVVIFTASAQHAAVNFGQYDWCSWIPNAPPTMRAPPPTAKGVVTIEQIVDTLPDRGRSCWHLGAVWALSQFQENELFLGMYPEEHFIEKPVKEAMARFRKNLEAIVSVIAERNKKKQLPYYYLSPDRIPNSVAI
Method: Human peripheral blood mononuclear leukocytes (PBMLs) were isolated using a Ficoll-Paque density gradient. Human peripheral blood mononuclear leukocytes (5×10^6 cells) were incubated with A23187 (30 μM), a divalent cation ionophore used to initiate the biosynthesis of […], and with vehicle (0.1% DMSO) or test compound (3 and 30 μM) in Hank's balanced salt solution (HBBS) buffer, pH 7.4 at 37° C. for 15 min. The PBML solution was neutralized with NaOH (1 N) and centrifuged at 1000 g for 10 min and the supernatant collected. The concentration of leukotriene B4 (LTB4) in the supernatant was measured using an enzyme immunoassay kit (Assay Design Inc.). A reduction in the concentration of LTB4 indicated an inhibition of the enzyme 5-lipoxygenase (Table 11).

[3] = system: IL-1α-induced PGE2 release; experiment: IL-1α-induced PGE2 release in human diploid lung fibroblasts (WI-38) (Assay 5); type: cell-based; settings: Homo sapiens, WI-38 cells, IL-1α 1 nM, overnight
Method: (§3) Human diploid lung fibroblasts (WI-38 cells) were incubated overnight in the presence of IL-1α (1 nM) and test compound (3 and 30 μM) in modified Eagle medium at pH 7.3 containing foetal bovine serum (10%) at 37° C. The supernatant was assayed by radioimmunoassay for released PGE2 and the inhibition of PGE2 by test compound calculated (Table 10). The viability of the cells was then assessed by washing with Roswell Park Memorial Institute medium and adding Alamar Blue reagent before being incubated at 37° C. for 4 h. Living cells take up Alamar Blue and emit fluorescence when excited. Fluorescence intensity was measured using a SpectroFluor Plus plate reader with excitation at 530 nm and emission at 590 nm (Table 10).

[4] = system: α-smooth muscle actin (α-SMA) mRNA; experiment: Anti-remodelling activity in human lung fibroblasts (HFL1): TGFβ-induced α-SMA mRNA (Assay 4); type: cell-based; settings: Homo sapiens, HFL1 cells, TGFβ 10 ng/ml, 24 h, read-out: Inhibition of α-SMA mRNA synthesis (%)
Method: A human foetal lung fibroblast cell line (HFL1 cells; ATCC accession number CCl-153) was used in this assay. The cells were cultured in medium containing a low level of foetal bovine serum (FBS; 0.1%) for 24 h. After 24 h of culturing the medium was changed to: (a) Control medium (medium containing 10% FBS, 1% phosphate saline and 0.5 mM L-glutamine), (b) Control medium and transforming growth factor beta (TGFβ; 10 ng/ml), (c) Control medium and TGFβ and test compounds (3 and 30 μM). The medium was collected after 24 h and the total mRNA extracted in Tri-reagent. The level of mRNA coding for α-smooth muscle actin (α-SMA) was assessed by real-time reverse transcription-polymerase chain reaction (rtRT-PCR) using primer couples that allow the amplification of α-SMA mRNA. Liver glyceraldehydes 3-phosphate dehydrogenase (GADPH) was used as a reference marker in this experiment. The inhibition of the TGTβ-induced overexpression of α-SMA mRNA by the test compounds was quantified.

[5] = system: 5-HT-induced contractions in guinea pig ileum; experiment: Inhibition of 5-HT-induced contractions in guinea pig ileum (Assay 3); settings: Cavia porcellus, 5-HT 2.6 μM, read-out: Inhibition of 5-HT-induced contraction (%)
Method: as §1, §2

[6] = molecular target: TRPV1 receptor (Rattus norvegicus, UniProt O35433); experiment: TRPV1 modulation in DRG neurones: CGRP release in absence and presence of capsaicin (Assay 2); type: cell-based; parameters: The culture used for this experiment contained sensory neurones, Schwann cells and fibroblasts; endogenous in cells; host or cells: primary rat DRG sensory neurone culture (with Schwann cells and fibroblasts); settings: 20 min; for inhibition at 3 µM: 3 μM with capsaicin 1 μM; for inhibition at 3 µM / inhibition at 30 µM: −ve: inhibition, +ve: potentiation of capsaicin response, read-out: Effect of test compounds on capsaicin (1 μM)-induced CGRP release (%); for inhibition at 30 µM: 30 μM with capsaicin 1 μM; for Emax at 3 µM: test compound alone 3 μM; for Emax at 3 µM / Emax at 30 µM: rat DRG sensory neurones, read-out: CGRP release (% of capsaicin (1 μM) response); for Emax at 30 µM: test compound alone 30 μM
[7] = system: WI-38 cells; experiment: Viability of WI-38 cells, Alamar Blue (Assay 5); type: cell-based, human
Method: as §3

TRPV1 receptor, sequence (O35433 whole entry): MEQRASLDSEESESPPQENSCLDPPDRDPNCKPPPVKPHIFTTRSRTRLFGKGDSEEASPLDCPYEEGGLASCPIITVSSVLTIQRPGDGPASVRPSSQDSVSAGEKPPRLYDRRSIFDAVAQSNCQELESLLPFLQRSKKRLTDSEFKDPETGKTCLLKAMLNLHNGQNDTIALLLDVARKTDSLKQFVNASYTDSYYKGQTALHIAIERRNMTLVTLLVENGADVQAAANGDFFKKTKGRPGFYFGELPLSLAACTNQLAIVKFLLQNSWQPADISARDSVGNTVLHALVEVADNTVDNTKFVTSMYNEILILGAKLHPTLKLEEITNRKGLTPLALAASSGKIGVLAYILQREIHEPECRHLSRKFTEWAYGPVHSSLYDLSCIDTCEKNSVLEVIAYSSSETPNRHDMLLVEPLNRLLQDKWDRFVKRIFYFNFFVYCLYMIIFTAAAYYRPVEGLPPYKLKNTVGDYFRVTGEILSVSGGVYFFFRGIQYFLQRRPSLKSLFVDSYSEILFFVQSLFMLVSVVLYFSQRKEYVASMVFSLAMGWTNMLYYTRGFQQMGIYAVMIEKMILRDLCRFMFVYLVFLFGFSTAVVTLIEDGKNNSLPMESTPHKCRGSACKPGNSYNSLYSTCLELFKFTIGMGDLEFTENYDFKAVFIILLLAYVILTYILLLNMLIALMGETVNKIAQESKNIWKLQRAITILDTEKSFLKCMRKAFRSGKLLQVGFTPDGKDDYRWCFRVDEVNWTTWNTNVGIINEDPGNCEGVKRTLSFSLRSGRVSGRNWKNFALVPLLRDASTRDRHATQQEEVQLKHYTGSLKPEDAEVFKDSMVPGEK

Row | inhibition at 3 µM [2] [%] | inhibition at 30 µM [2] [%] | inhibition at 3 µM [6] [%] | inhibition at 30 µM [6] [%] | Emax at 3 µM [6] [%] | Emax at 30 µM [6] [%] | Structure (SMILES) | inhibition at 3 µM [1] [%] | inhibition at 30 µM [1] [%] | inhibition at 3 µM [3] [%] | inhibition at 30 µM [3] [%] | inhibition at 3 µM [4] [%] | inhibition at 30 µM [4] [%] | inhibition at 3 µM [5] [%] | inhibition at 30 µM [5] [%] | Decrease in cell viability (%) ([7]; 3 μM) | Decrease in cell viability (%) ([7]; 30 μM)
1 | 54 | 94 | 18 | 21 | 48 | 59 | COC(=O)c1ccc(C(=O)CC(=O)CCc2ccc(O)c(OC)c2)cc1 [Compound 25, Methyl 4-(5-(4-hydroxy-3-methoxyphenyl)-3-oxopentanoyl)benzoate] | 1 | 43 | 58 | 102 | -3 | 20 | 12 | 35 | −6 | 0
2 | 92 | 98 | 46 | -66 | 85 | 162 | COc1cc(CCC(=O)CC(=O)c2cccc3ccccc23)ccc1O [Compound 27, 5-(4-Hydroxy-3-methoxylphenyl)-1-(naphthalene-1-yl)-pentane-1,3-dione] | 2 | 68 | 92 | 99 | 6 | 79 | 1 | 63 | 4 | 40
3 | 35 | 98 | 51 | -29 | 29 | 107 | COc1cc(CCC(=O)CC(=O)Cc2ccccc2)ccc1O [Compound 28, 6-(4-Hydroxy-3-methoxyphenyl)-1-phenyl-hexane-2,4-dione] | 7 | 18 | 87 | 99 | 12 | 47 | 6 | 85 | 1 | 6
4 | 47 | 98 | 46 | -41 | 65 | 164 | COc1cc(CCC(=O)CC(=O)Cc2cccc3ccccc23)ccc1O [Compound 29, 6-(4-Hydroxy-3-methoxyphenyl)-1-naphthalen-1-yl-hexane-2,4-dione] | 17 | 89 | 86 | 99 | 33 | 86 | 5 | – | −1 | 12
5 | 50 | 99 | 49 | -150 | 70 | 122 | COc1cc(CCC(=O)CC(=O)C(c2ccccc2)c2ccccc2)ccc1O [Compound 30, 6-(4-Hydroxy-3-methoxyphenyl)-1,1-diphenyl-hexane-2,4-dione] | 8 | 89 | 46 | 99 | 84 | 100 | 6 | – | −10 | 29
6 | 32 | 95 | 17 | -77 | 56 | 109 | COc1cc(CCC(=O)CC(=O)C(C)(C)c2ccccc2)ccc1O [Compound 31, 6-(4-Hydroxy-3-methoxyphenyl)-1,1-dimethyl-1-phenyl-hexane-2,4-dione] | 12 | 68 | 83 | 101 | 34 | 80 | 10 | 96 | 5 | −7
